Literature values in PubChem BioAssay AID1259409 (Chemical Carcinogenesis Research Information System (CCRIS), 2018).

Test system: rodent chemically induced tumor inhibition, incidence and multiplicity
Assay: CCRIS tumor inhibitor studies
Settings: Dose [Inhibitor]: 0, Promoter: NONE USED

CCC1(c2ccccc2)C(=O)NC(=O)NC1=O
tumour outcome (control, treated, inhibition, significance) (Carcinogen: DIETHYLNITROSAMINE, 55-18-5, 80 MG/KG 1/D FOR 3 D PRIOR TO EACH CARCINOGEN DOSE (STUDY DURATION: 6 MO), Route [Inhibitor]: INTRAPERITONEAL, Species: RAT, Strain/Sex: BD6/FEMALE, Target Tissue: Type of Lesion: ESOPHAGUS: TUMOR, Dose [Carcinogen]: 80 MG/KG BW 1/WK FOR 8 WK): 18%, 0%, 100%, not significant
tumour outcome (control, treated, inhibition, significance) (Carcinogen: DIETHYLNITROSAMINE, 55-18-5, 80 MG/KG 1/D FOR 3 D PRIOR TO EACH CARCINOGEN DOSE (STUDY DURATION: 6 MO), Route [Inhibitor]: INTRAPERITONEAL, Species: RAT, Strain/Sex: BD6/FEMALE, Target Tissue: Type of Lesion: LIVER: TUMOR, Dose [Carcinogen]: 80 MG/KG BW 1/WK FOR 8 WK): 82%, 100%, -18%, not significant
tumour outcome (control, treated, inhibition, significance) (Carcinogen: N-ETHYL-N-NITROSOUREA, 759-73-9, 0.05% IN DRINKING WATER BEGINNING 4 WK POST CARCINOGEN AND CONTINUING FOR STUDY DURATION (STUDY DURATION: 52 WK), Route [Inhibitor]: ORAL, Species: RAT, Strain/Sex: WF/FEMALE, Target Tissue: Type of Lesion: BRAIN: GLIOMA, Dose [Carcinogen]: 5 MG ONCE AT 24 HR OF AGE): 7/13 (54%), 1/12 (8%), 85%, p<.05
tumour outcome (control, treated, inhibition, significance) (Carcinogen: N-ETHYL-N-NITROSOUREA, 759-73-9, 0.05% IN DRINKING WATER BEGINNING 4 WK POST CARCINOGEN AND CONTINUING FOR STUDY DURATION (STUDY DURATION: 52 WK), Route [Inhibitor]: ORAL, Species: RAT, Strain/Sex: WF/MALE, Target Tissue: Type of Lesion: BRAIN: GLIOMA, Dose [Carcinogen]: 5 MG ONCE AT 24 HR OF AGE): 3/13 (23%), 1/10 (10%), 56%, not significant
tumour outcome (control, treated, inhibition, significance) (Carcinogen: N-ETHYL-N-NITROSOUREA, 759-73-9, 0.05% IN DRINKING WATER BEGINNING 4 WK POST CARCINOGEN AND CONTINUING FOR STUDY DURATION (STUDY DURATION: 52 WK), Route [Inhibitor]: ORAL, Species: RAT, Strain/Sex: WF/MALE, Target Tissue: Type of Lesion: MENINGES: TUMOR, Dose [Carcinogen]: 5 MG ONCE AT 24 HR OF AGE): 1/13 (8%), 0/10 (0%), 100%, not calculated
tumour outcome (control, treated, inhibition, significance) (Carcinogen: N-METHYL-N-NITROSOUREA, 684-93-5, 0.05% IN DIET BEGINNING POST CARCINOGEN TREATMENT AND CONTINUING FOR 23 WK (STUDY DURATION: 25 WK), Route [Inhibitor]: ORAL, Species: RAT, Strain/Sex: F344/MALE, Target Tissue: Type of Lesion: FORESTOMACH: PAPILLOMA, Dose [Carcinogen]: 50 MG/KG 4/2 WK): 8/17 (47%), 12/18 (67%), -43%, not calculated
tumour outcome (control, treated, inhibition, significance) (Carcinogen: N-METHYL-N-NITROSOUREA, 684-93-5, 0.05% IN DIET BEGINNING POST CARCINOGEN TREATMENT AND CONTINUING FOR 23 WK (STUDY DURATION: 25 WK), Route [Inhibitor]: ORAL, Species: RAT, Strain/Sex: F344/MALE, Target Tissue: Type of Lesion: FORESTOMACH: SQUAMOUS CELL CARCINOMA, Dose [Carcinogen]: 50 MG/KG 4/2 WK): 2/17 (12%), 9/18 (50%), -316%, not calculated
tumour outcome (control, treated, inhibition, significance) (Carcinogen: N-METHYL-N-NITROSOUREA, 684-93-5, 0.05% IN DIET BEGINNING POST CARCINOGEN TREATMENT AND CONTINUING FOR 23 WK (STUDY DURATION: 25 WK), Route [Inhibitor]: ORAL, Species: RAT, Strain/Sex: F344/MALE, Target Tissue: Type of Lesion: HEMATOPOIETIC SYSTEM: LYMPHOMA OR LEUKEMIA, Dose [Carcinogen]: 50 MG/KG 4/2 WK): 3/17 (18%), 5/18 (28%), -56%, not calculated
tumour outcome (control, treated, inhibition, significance) (Carcinogen: N-METHYL-N-NITROSOUREA, 684-93-5, 0.05% IN DIET BEGINNING POST CARCINOGEN TREATMENT AND CONTINUING FOR 23 WK (STUDY DURATION: 25 WK), Route [Inhibitor]: ORAL, Species: RAT, Strain/Sex: F344/MALE, Target Tissue: Type of Lesion: SMALL INTESTINE: ADENOCARCINOMA, Dose [Carcinogen]: 50 MG/KG 4/2 WK): 9/17 (53%), 6/18 (33%), 38%, not calculated
tumour outcome (control, treated, inhibition, significance) (Carcinogen: N-METHYL-N-NITROSOUREA, 684-93-5, 0.05% IN DIET BEGINNING POST CARCINOGEN TREATMENT AND CONTINUING FOR 23 WK (STUDY DURATION: 25 WK), Route [Inhibitor]: ORAL, Species: RAT, Strain/Sex: F344/MALE, Target Tissue: Type of Lesion: SMALL INTESTINE: ADENOMA, Dose [Carcinogen]: 50 MG/KG 4/2 WK): 10/17 (59%), 15/18 (83%), -41%, not calculated
tumour outcome (control, treated, inhibition, significance) (Carcinogen: N-METHYL-N-NITROSOUREA, 684-93-5, 0.05% IN DIET BEGINNING POST CARCINOGEN TREATMENT AND CONTINUING FOR 23 WK (STUDY DURATION: 25 WK), Route [Inhibitor]: ORAL, Species: RAT, Strain/Sex: F344/MALE, Target Tissue: Type of Lesion: THYROID: ADENOCARCINOMA, Dose [Carcinogen]: 50 MG/KG 4/2 WK): 1/17 (6%), 6/18 (33%), -450%, not calculated
tumour outcome (control, treated, inhibition, significance) (Carcinogen: N-METHYL-N-NITROSOUREA, 684-93-5, 0.05% IN DIET BEGINNING POST CARCINOGEN TREATMENT AND CONTINUING FOR 23 WK (STUDY DURATION: 25 WK), Route [Inhibitor]: ORAL, Species: RAT, Strain/Sex: F344/MALE, Target Tissue: Type of Lesion: THYROID: ADENOMA, Dose [Carcinogen]: 50 MG/KG 4/2 WK): 3/17 (18%), 16/18 (89%), -394%, not calculated
tumour outcome (control, treated, inhibition, significance) (Carcinogen: N-METHYL-N-NITROSOUREA, 684-93-5, 0.05% IN DIET BEGINNING POST CARCINOGEN TREATMENT AND CONTINUING FOR 23 WK (STUDY DURATION: 25 WK), Route [Inhibitor]: ORAL, Species: RAT, Strain/Sex: F344/MALE, Target Tissue: Type of Lesion: TONGUE: PAPILLOMA, Dose [Carcinogen]: 50 MG/KG 4/2 WK): 2/17 (12%), 2/18 (11%), 8%, not calculated
tumour outcome (control, treated, inhibition, significance) (Carcinogen: N-METHYL-N-NITROSOUREA, 684-93-5, 0.05% IN DIET BEGINNING POST CARCINOGEN TREATMENT AND CONTINUING FOR 23 WK (STUDY DURATION: 25 WK), Route [Inhibitor]: ORAL, Species: RAT, Strain/Sex: F344/MALE, Target Tissue: Type of Lesion: TONGUE: SQUAMOUS CELL CARCINOMA, Dose [Carcinogen]: 50 MG/KG 4/2 WK): 2/17 (12%), 3/18 (17%), -42%, not calculated
tumour outcome (control, treated, inhibition, significance) (Carcinogen: N-METHYL-N-NITROSOUREA, 684-93-5, 0.05% IN DIET BEGINNING POST CARCINOGEN TREATMENT AND CONTINUING FOR 23 WK (STUDY DURATION: 25 WK), Route [Inhibitor]: ORAL, Species: RAT, Strain/Sex: F344/MALE, Target Tissue: Type of Lesion: URINARY BLADDER: PAPILLOMA, Dose [Carcinogen]: 50 MG/KG 4/2 WK): 2/17 (12%), 1/18 (6%), 50%, not calculated
tumour outcome (control, treated, inhibition, significance) (0.05% IN DIET FOR 13 WK AFTER WEANING (STUDY DURATION: 13 WK), Route [Inhibitor]: ORAL, Species: MOUSE, Strain/Sex: DDK/FEMALE, Target Tissue: Type of Lesion: LIVER: TUMOR, Dose [Carcinogen]: 40 MG/KG ADMINISTERED TO MOTHERS ON DAY 14 OF GESTATION): 2/15 (13%), 1/15 (7%), 46%, p<0.05
tumour outcome (control, treated, inhibition, significance) (0.05% IN DIET FOR 13 WK AFTER WEANING (STUDY DURATION: 13 WK), Route [Inhibitor]: ORAL, Species: MOUSE, Strain/Sex: DDK/MALE, Target Tissue: Type of Lesion: LIVER: TUMOR, Dose [Carcinogen]: 40 MG/KG ADMINISTERED INTRAPERITONEALLY TO MOTHERS ON DAY 14 OF GESTATION): 2/15 (13%), 1/7 (6%), 54%, p<0.05
tumour outcome (control, treated, inhibition, significance) (0.05% IN DIET FOR 25 WK AFTER WEANING (STUDY DURATION: 25 WK), Route [Inhibitor]: ORAL, Species: MOUSE, Strain/Sex: DDK/MALE, Target Tissue: Type of Lesion: LIVER: TUMOR, Dose [Carcinogen]: 40 MG/KG ADMINISTERED TO MOTHERS ON DAY 14 OF GESTATION): 8/15 (53%), 0/18 (0%), 100%, not calculated
